Measured values taken from US7579371B2, “Methods of using [3.2.0] heterocyclic compounds and analogs thereof” (Nereus Pharmaceuticals, Inc., priority 2004, dated 2009).
Values joined by “and” are separate entries in the source; they are usually repeats but may differ in a detail not shown here. Equal entries are not always repeated. Where two headings read alike, the source gives them in different places. Peptide text beside a SMILES is read from it. * marks the point of attachment. Cbz = O=C(OCc1ccccc1)*

Assays:
RAW264.7 cells [1] = details: Tang et al., Infect Immun 67:3055 (1999); read-out: EC50 in the LeTx assay; cited from earlier work
Stability in solution = format: physicochemical
Description: Compound VI-1B: UV (Acetonitrile/H2O) λmax 235 (sh) nm; ESMS, m/z 585.2 (M+H)^+.

[2] = target: rabbit muscle 20S proteasome, trypsin-like activity (Oryctolagus cuniculus, UniProt G1SWK8); test: Trypsin-like activity of purified rabbit 20S proteasome (Boc-LRR-AMC)
RPMI 8226 = test: Cell growth inhibition assay (resazurin, 48 h); details: RPMI 8226
Protocol: RPMI 8226 (CCL-155), HT-29 (HTB-38), and B16-F10 (CRL-6475) cells were purchased from ATCC. RPMI 8226 cells were maintained in RPMI 1640 media supplemented with 10% (v/v) FBS, 2 mM L-glutamine, 1 mM sodium pyruvate and Penicillin/Streptomycin at 100 IU/ml and 100 μg/ml, respectively. HT-29 cells were maintained in McCoys 5A supplemented with 10% (v/v) FBS, 2 mM L-glutamine, 1 mM sodium pyruvate, 1% (v/v) non-essential amino acids, 10 mM HEPES and Penicillin/Streptomycin at 100 IU/ml and 100 μg/ml, respectively. B16-F10 cells were maintained in DMEM supplemented with 10% (v/v) FBS, 2 mM L-glutamine, 10 mM HEPES and Penicillin/Streptomycin at 100 IU/ml and 100 μg/ml, respectively.
RPMI 8226 cells were seeded at 2×10^4 cells/well in 90 μl RPMI media containing 10% (v/v) FBS or 1% (v/v) FBS into 96 well black-walled, clear-bottom tissue culture plates. […] Formulae II-16, II-17 and Formula II-18 were serially diluted in media containing 1% or 10% FBS and added in triplicate to the test wells. […] The final concentration of Formula II-18 ranged from 2 μM to 630 pM.

NF-κB = test: NF-κB-mediated luciferase reporter gene assay, HEK293 NF-κB/Luc cells, TNF-α stimulation; format: cell-based; details: Homo sapiens, HEK293, 1 hr pretreatment, 6 hours TNF-α; read-out: EC50, NF-κB-mediated luciferase activity
Protocol: The HEK293 NF-κB/luciferase reporter cell line is a derivative of the human embryonic kidney cell line (ATCC; CRL-1573) and carries a luciferase reporter gene under the regulation of 5× NF-κB binding sites. […] When performing the luciferase assay, the DMEM basal medium was replaced with phenol-red free DMEM basal medium and the G418 was omitted.
For NF-κB-mediated luciferase assays, HEK293 NF-κB/luciferase cells were seeded at 1.5×10^4 cells/well in 90 μl phenol-red free DMEM complete medium into Corning 3917 white opaque-bottom tissue culture plates. For Formulae II-2, II-4, II-5A and II-18, a 400 μM starting dilution was made in 100% DMSO and this dilution was used to generate an 8-point half log dilution series. […] For formula II-20, a 2.5 mM or 8 mM starting dilution was made in 100% DMSO and the final test concentrations ranged from 6.3 μM to 2.0 nM or 20 μM to 6.3 nM respectively. The plates were returned to the incubator for 1 hour. After 1 hr pretreatment, 10 μl of a 50 ng/ml TNF-α solution, prepared in the phenol-red free DMEM medium was added, and the plates were incubated for an additional 6 hours.
At the end of the TNF-α stimulation, 100 μl of Steady Lite HTS luciferase reagent (Packard Bioscience) was added to each well and the plates were left undisturbed for 10 min at room temperature before measuring the luciferase activity. The relative luciferase units (RLU) were measured by using a Fusion microplate fluorometer (Packard Bioscience).
NF-κB inducible luciferase activity was measured at 6 hours.

MES-SA/Dx5 = test: Cell growth inhibition assay (resazurin, 48 h); details: for EC50: MES-SA/Dx5, 48 h
Protocol: (§1) Concentrations ranging from 6.32 μM to 2 nM were tested for II-2 and II-4.
The multidrug resistant MES-SA/Dx5 tumor cell line was derived from the human uterine sarcoma MES-SA tumor cell line and expresses elevated P-Glycoprotein (P-gp), an ATP dependent efflux pump.

U266 = test: Cell growth inhibition assay (resazurin, 48 h); format: cell-based; details: Homo sapiens, U-266, 48 h, U266, 48 h; read-out: EC50
PC-3 = test: Cell growth inhibition assay (resazurin, 48 h); details: Homo sapiens, PC-3, 48 h
NCI-H292 = test: Cell growth inhibition assay (resazurin, 48 h); format: cell-based, human; details: Homo sapiens, NCI-H292, 48 h
HL-60/MX2 = test: Cell growth inhibition assay (resazurin, 48 h); details: HL-60/MX2, 48 h
Protocol: The DNA binding agent Mitoxantrone was included as a control, as HL-60/MX2 cells are reported to be resistant to this chemotherapeutic agent (Harker W. G. et al. 1989).
as §1
HL-60/MX2 is a multidrug resistant tumor cell line derived from the human promyelocytic leukemia cell line, HL-60 and expresses reduced topoisomerase II activity. […] Mitoxantrone, the topoisomerase II targeting agent was included as a control.

[3] = target: rabbit muscle 20S proteasome, chymotrypsin-like activity (Oryctolagus cuniculus, UniProt G1T4Q9); test: Chymotrypsin-like activity of purified rabbit muscle 20S proteasome (suc-LLVY-AMC); format: biochemical
Protocol: This peptide substrate is specific for the chymotrypsin-like enzyme activity of the proteasome.
Omuralide was prepared as a 10 mM stock in DMSO and stored in 5 μL aliquots at −80° C. […] The assay measures the hydrolysis of Suc-LLVY-AMC into Suc-LLVY and AMC. The released coumarin (AMC) was measured fluorometrically by using λex=390 nm and λem=460 nm. The assays were performed in a microtiter plate (Corning 3904), and followed kinetically with measurements every five minutes. The instrument used was a Thermo Lab Systems Fluoroskan, with the incubation chamber set to 37° C. The assays were performed according to the manufacturer's protocol, with the following changes. The proteasome was activated as described with SDS, and held on ice prior to the assay. […] Ten microliters of each dose were added in triplicate to the assay plate, and 190 μL of the activated proteasome was added and mixed. The samples were pre-incubated in the Fluoroskan for 5 minutes at 37° C. Substrate was added and the kinetics of AMC were followed for one hour.

[4] = target: T1, 20S proteasome chymotrypsin-like activity in PC-3 cells (Homo sapiens, UniProt P28074); test: Chymotrypsin-like activity of 20S proteasomes in treated PC-3 cells; format: cell-based; details: 1 hr
T1 construct: PC-3 (ATCC, CRL-1435), the human prostate cancer cell line; host or cells: PC-3
T1 sequence (P28074 60-263): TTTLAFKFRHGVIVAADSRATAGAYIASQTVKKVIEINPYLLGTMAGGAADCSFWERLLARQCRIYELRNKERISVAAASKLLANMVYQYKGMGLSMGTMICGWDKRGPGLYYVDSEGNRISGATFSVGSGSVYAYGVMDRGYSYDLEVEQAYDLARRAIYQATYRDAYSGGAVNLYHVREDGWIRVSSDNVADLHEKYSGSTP
Protocol: PC-3 (ATCC, CRL-1435), the human prostate cancer cell line, was cultured in F12K medium supplemented with 2 mM L-glutamine, 100 units/ml penicillin, 100 μg/ml streptomycin and 10% heat inactivated fetal bovine serum at 37° C., 5% CO2 and 95% humidified air. […] DMSO was used as the vehicle control at a final concentration of 0.1%. Following 1 hr incubation of PC-3 cells with the compounds, the cells were washed 3× with ice-cold 1× Dulbecco's Phosphate-Buffered Saline (DPBS, Mediatech, Herndon, Va.). […] Cell debris was pelleted by centrifugation at 14,000 rpm for 10 min, 4° C. and supernatants (=cell lysates) were transferred to a new tube. Protein concentration was determined by the BCA protein assay kit (Pierce Biotechnology, Rockford, Ill.). […] The released coumarin (AMC) was measured fluorometrically by using λex=390 nm and λem=460 nm. The assay was performed in a microtiter plate (Corning 3904) and followed kinetically with measurements every five minutes for 2 hr. The total amount of protein used for each assay was 20 μg. The final concentration of Suc-LLVY-AMC and DMSO was 20 μM and 0.2%, respectively. Results are presented as the percent inhibition of the 20S proteasome chymotrypsin-like activity relative to the DMSO control.

RAW264.7 cells [5] = test: cells; details: Mus musculus, RAW264.7, read-out: viability, compound + LeTx

Sequence of rabbit muscle 20S proteasome, trypsin-like activity (G1SWK8 1-271): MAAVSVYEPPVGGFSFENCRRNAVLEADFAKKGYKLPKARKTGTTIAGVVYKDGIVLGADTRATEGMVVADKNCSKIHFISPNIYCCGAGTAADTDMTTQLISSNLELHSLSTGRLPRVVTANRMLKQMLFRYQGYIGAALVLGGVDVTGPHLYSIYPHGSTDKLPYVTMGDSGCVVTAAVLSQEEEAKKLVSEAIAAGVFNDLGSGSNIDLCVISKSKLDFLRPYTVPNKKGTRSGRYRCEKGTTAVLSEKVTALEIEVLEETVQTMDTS
Sequence of rabbit muscle 20S proteasome, chymotrypsin-like activity (G1T4Q9 1-263): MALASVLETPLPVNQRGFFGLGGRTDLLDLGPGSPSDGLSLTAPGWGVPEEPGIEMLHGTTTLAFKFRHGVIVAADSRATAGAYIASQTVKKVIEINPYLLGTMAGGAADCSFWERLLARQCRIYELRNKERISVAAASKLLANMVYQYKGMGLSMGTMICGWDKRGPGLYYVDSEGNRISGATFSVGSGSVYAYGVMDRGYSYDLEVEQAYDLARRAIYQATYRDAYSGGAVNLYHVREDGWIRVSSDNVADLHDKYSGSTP

CC(C)C[C@@H](C=O)NC(=O)[C@H](CC(C)C)NC(=O)[C@H](CC(C)C)NC(=O)OCc1ccccc1 [MG132] (Cbz-Leu-Leu-Leu-aldehyde)
EC50 (RAW264.7 cells [1]): 3000 nM

C[C@]1(O)[C@@H](CCCl)C(=O)N[C@]1(C(=O)SCC(NC(=O)CCC(N)C(=O)O)C(=O)NCC(=O)O)[C@@H](O)[C@@H]1C=CCCC1 (some centres unmarked) [Formula II-48]
stability in solution (Stability in solution): unstable in solution

C[C@@]12OC(=O)[C@]1([C@@H](O)[C@H]1CCC[C@@H]3O[C@H]13)NC(=O)[C@@H]2CCCl [Formula II-5B]
EC50 [2]: 762 nM and 716 nM

C[C@@]12OC(=O)[C@]1([C@@H](O)[C@@H]1C=CCCC1)NC(=O)[C@@H]2CCBr [Formula II-18]
% cytotoxicity (RPMI 8226): 94, 94%

CC(=O)N[C@@H](CSC(=O)[C@]1([C@@H](O)C(C)C)NC(=O)[C@H](C)[C@@H]1O)C(=O)O [Lactacystin]
EC50 (RAW264.7 cells [1]): 3000 nM

C[C@@]12OC(=O)[C@]1([C@@H](O)[C@H]1CCC[C@H](Cl)[C@H]1O)NC(=O)[C@@H]2CCCl [Formula IV-3C]
EC50 (NF-κB): > 20000 nM

CC(=O)O[C@H]1C(=O)[C@@]2(C)[C@H]([C@H](OC(=O)c3ccccc3)[C@]3(O)C[C@H](OC(=O)[C@H](O)[C@@H](NC(=O)c4ccccc4)c4ccccc4)C(C)=C1C3(C)C)[C@]1(OC(C)=O)CO[C@@H]1C[C@@H]2O [Paclitaxel, reference compound]
% cytotoxicity (MES-SA/Dx5): 78 ± 1%

CC[C@H]1C(=O)N[C@@]2([C@@H](O)C3CCCCC3)C(=O)O[C@@]12C [Formula II-3]
EC50 (U266): > 20000 nM | EC50 (MES-SA/Dx5; Homo sapiens): > 20000 nM | EC50 (NF-κB): > 20000 nM | EC50 (PC-3): > 20000 nM

C[C@@]12OC(=O)[C@]1([C@@H](O)C1CCCCC1)NC(=O)[C@@H]2CCCl [Formula II-2]
EC50 (NCI-H292): 395 nM | EC50 (NCI-H292; read-out: EC50): 322 nM | EC50 (MES-SA/Dx5; Homo sapiens): 220 nM | EC50 (MES-SA/Dx5): 138 nM | EC50 (HL-60/MX2; Homo sapiens, HL60/MX2, 48 h): 142 nM

C[C@@]12OC(=O)[C@]1(C(=O)C1=CC(O)CCC1)NC(=O)[C@]2(C)CCCl (some centres unmarked) [Formula II-31]
EC50 [3]: > 20000 nM

C[C@@]12OC(=O)[C@]1([C@@H](O)C1CCCCC1)NC(=O)[C@@H]2CCBr [Formula II-4]
EC50 (NCI-H292): 213 nM | EC50 (NCI-H292; read-out: EC50): 192 nM | EC50 (U266): 39 nM | EC50 (MES-SA/Dx5; Homo sapiens): 178 nM | EC50 (MES-SA/Dx5): 93 nM

C[C@@]12OC(=O)[C@]1([C@@H](O)[C@H]1CCC[C@H]3O[C@@H]13)NC(=O)[C@@H]2CCCl (single isomer, unassigned) [Formula II-5A]
EC50 [2]: 87 nM

O=C1c2c(O)ccc(O)c2C(=O)c2c(NCCNCCO)ccc(NCCNCCO)c21 [Mitoxantrone]
EC50 (HL-60/MX2): 827 nM and 1340 nM and 1170 nM | EC50 (HL-60/MX2; Homo sapiens, HL60/MX2, 48 h): 1410 nM

CC[C@H]1C(=O)N[C@@]2([C@@H](O)[C@@H]3C=CCCC3)C(=O)O[C@@]12C [Formula II-17]
% inhibition of the chymotrypsin-like activity of 20S proteasomes in PC-3 cell lysates ([4]; 100 nM): 26% | inhibition at 0.01 µM ([4]; PC-3, read-out: % inhibition of the chymotrypsin-like activity of 20S proteasomes in PC-3 cell lysates, 10 nM): 16% | inhibition at 0.1 µM ([4]; PC-3, read-out: % inhibition of the chymotrypsin-like activity of 20S proteasomes in PC-3 cell lysates, 100 nM): 26% | inhibition at 1 µM ([4]; PC-3, read-out: % inhibition of the chymotrypsin-like activity of 20S proteasomes in PC-3 cell lysates, 1,000 nM): 49% | inhibition at 10 µM ([4]; PC-3, read-out: % inhibition of the chymotrypsin-like activity of 20S proteasomes in PC-3 cell lysates, 10,000 nM): 79%

CC(C)[C@H](O)[C@@]12NC(=O)[C@H](C)[C@@H]1OC2=O [Omuralide, reference compound]
% inhibition of the chymotrypsin-like activity of 20S proteasomes in PC-3 cell lysates ([4]; 100 nM): 36% | viability at 1 µM (RAW264.7 cells [5]): 37%
